Reference: patent US11987808B2, “Method of human periferic sensory neurons differenciation from human stem cells and uses thereof” (L'OREAL, priority 2017, dated 2024)
“Also recorded” adds a separate entry of the source.

What was measured:
TRPV1 = conditions: Zygmunt et al. 1999; cited from earlier work
[1] = test system: hiPS cells derived sensory neurons (TRPV1 activity / substance P release); assay: Substance P release (ELISA) from hiPSC-derived sensory neurons after treatment with TRPV1 agonists and antagonists; assay type: cell-based, human
Procedure: Substance P release measured in the supernatant of sensory neurons culture after incubating 1 h at 37° C. in the presence of ligands. CAP: capsaicin; CPZ: capsazepine; RR: ruthenium red; AEA: anandamide (10 μM); KCl: high potassium solution (70 mM).
Substance P (SP) levels were determined using a commercially available ELISA kit (Cayman), following the manufacturer's instructions. Sensory neurons were cultured in a culture vessel in 24-well culture vessels at high confluence. After 24 h, cells were rinsed with fluorimetry buffer and incubated with different concentrations of agonists of TRPV1 for 45 minutes in the same buffer. When an antagonist was used, it was applied 15 minutes before, then the solution was changed to agonist plus antagonist. Subsequently, the supernatants were collected and immediately used with the ELISA kit. All experiments were performed in triplicate and absorbance levels were measured in a microculture vessel reader.
PSNs respond to irritants, such as capsaicin, via release of neuropeptides at the epidermal end and glutamate and neuropeptides in the dorsal horn of the medulla (Basbaum et al., Cellular and molecular mechanisms of pain. Cell. 2009; 139:267-284). To verify if the sensory neurons were functional with respect to neuropeptide release, after D33 they were plated onto 24-well plates and treated 10 days with HEKn conditioned medium.

human skin fibroblasts = conditions: Kim et al. 2006; cited from earlier work
[2] = test system: cultured human epidermal keratinocytes; conditions: Inoue et al. 2002; cited from earlier work
[3] = test system: TRPV1 in hiPS cells derived sensory neurons; assay: Calcium release assay (Fura-2 imaging) in hiPS cells derived sensory neurons; assay type: cell-based, human; conditions: Fura-2 340/380 nm, capsaicin 100 nM in FIG. 5
Procedure: Phase contrast image for cell localization (a) fluorescence image of basal calcium levels (b). Calcium responses in sensory neurons after 100 nM capsaicin (c) and 70 mM KCL treatment (d). Calcium imaging of sensory neurons with conversion of Fura-2 excitation ratio (340/380 nm) to pseudo color, according to the scale on the left of each image. Arrows indicate active cells.
Neurons were cultured in a culture vessel onto PLO and Laminin-treated coverslips (where they were treated with HEKn conditioned medium for 10 days. On the day of the experiment, the medium was removed and cells were incubated with fresh medium (without factors) containing 5 μM Fura-2 AM (Molecular Probes) and 0.04% pluronic acid for one hour at 37° C. Then this solution was replaced with fluorimetry buffer, composed of (in mM): 145 NaCl, 5 KCl, 1.2 NaHPO4, 1.5 CaCl2, 10 D-glucose, 5 HEPES pH 7.4. If an antagonist was used, it was added to this solution at this time. After 30 minutes at 37° C., the coverslips were taken to an inverted microscope (Nikon) equipped with a CCD Camera (Orca, Hamamatsu Photonics) and Lambda DG-4 light source (Sutter Instrument). The images were acquired every 500 milliseconds via MetaFluor software (Molecular Probes) and the levels of fluorescence were represented in pseudo-color. […]

In the case of `CCCCC/C=C\C/C=C\C/C=C\C/C=C\CCCC(=O)NCCO` [anandamide], the “EC50 at TRPV1 compared with CB1” value (TRPV1) is listed as “an order of magnitude higher”, the “Substance P release” value ([1]; anandamide 10 μM) is listed as “evoked the highest substance P release; also recorded: caused a release of substance P” and the “Substance P release, increase compared to control” value ([1]; anandamide 10 μM, supernatant of sensory neurons culture after 1 h at 37° C.) is listed as 887%.
In the case of `COc1cc(CNC(=O)CCCC/C=C/C(C)C)ccc1O` [capsaicin], the “Membrane current and intracellular calcium level” value (human skin fibroblasts) is given as “induced significant changes in the membrane current and the intracellular calcium level”, the Intracellular calcium concentration [2] is given as “produced elevations in the intracellular calcium concentration” and the “Substance P release relative to basal level” value ([1]; capsaicin 300 nM, neurons treated 10 days with HEKn conditioned medium) is given as “triple that amount”. The “Substance P release” value ([1]; capsaicin 3 μM) was “did not show increased release”, the “Calcium increases mediated by TRPV1 activation (calcium signals)” value [3] was “modest” and the “Calcium increases mediated by TRPV1 activation (calcium signals)” value ([3]; listed as Capsaicin) was “activity could be detected”.
In the case of `Oc1cc2c(cc1O)CN(C(=S)NCCc1ccc(Cl)cc1)CCC2` [capsazepine], the “Antagonism of capsaicin-induced changes” value (human skin fibroblasts) is listed as “antagonized”, the “Inhibition of capsaicin-/acidification-induced calcium increases” value [2] is listed as “inhibited” and the “Block of capsaicin-induced substance P release” value ([1]; co-treatment with capsazepine 1 μM, capsaicin 300 nM) is listed as “efficiently blocked”.
In the case of `[Cl-].[K+]` [high potassium solution], the “Substance P release” value ([1]; high potassium solution 70 mM) is reported as “substance P release equivalent to capsaicin 300 r1M”.
In the case of `N.N.N.N.N.N.N.N.N.N.N.N.N.N.[Cl-].[Cl-].[Cl-].[Cl-].[Cl-].[Cl-].[O-2].[O-2].[Ru+3].[Ru+3].[Ru+4]` [ruthenium red], the “Substance P release relative to basal levels” value ([1]; pre-incubation with ruthenium red 10 μM followed by capsaicin 3 μM) is reported as “seemed to decrease substance P release below basal levels”.
